Patent US11155557B2, “Pyrazolopyrimidine compounds and methods of use thereof” (Genentech, Inc., priority 2016, dated 2021)

Columns and labels:
[1] = target: isolated recombinant JAK1 kinase domain (Homo sapiens (Human), UniProt P23458); assay: JAK1 enzyme assay (Caliper LabChip, Ki); type: biochemical
Method: The activity of the isolated recombinant JAK1 and JAK2 kinase domain was measured by monitoring phosphorylation of a peptide derived from JAK3 ([…] fluorescently labeled on the N-terminus with 5-carboxyfluorescein) using the Caliper LabChip R technology (Caliper Life Sciences, Hopkinton, Mass.).

[2] = system: JAK1-dependent STAT6 phosphorylation in BEAS-2B human bronchial epithelial cells; assay: JAK1 pathway assay: IL-13 stimulated STAT6 phosphorylation in BEAS-2B cells; type: cell-based; settings: Homo sapiens, BEAS-2B, BEAS-2B cells, IL-13 stimulation; read-out: IL-13 p-STAT6 BEAS-2B IC50
In short: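 BEAS-2B bronchial epithelial cells plated one day before, run in complete growth medium. Phospho-STAT6 in lysates measured by MesoScale Discovery; EC50 reported.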

[3] = target: isolated recombinant JAK2 kinase domain (Homo sapiens (Human), UniProt O60674); assay: JAK2 enzyme assay (Caliper LabChip, Ki); settings: read-out: JAK2 Ki
Sequence of isolated recombinant JAK2 kinase domain (O60674 849-1124): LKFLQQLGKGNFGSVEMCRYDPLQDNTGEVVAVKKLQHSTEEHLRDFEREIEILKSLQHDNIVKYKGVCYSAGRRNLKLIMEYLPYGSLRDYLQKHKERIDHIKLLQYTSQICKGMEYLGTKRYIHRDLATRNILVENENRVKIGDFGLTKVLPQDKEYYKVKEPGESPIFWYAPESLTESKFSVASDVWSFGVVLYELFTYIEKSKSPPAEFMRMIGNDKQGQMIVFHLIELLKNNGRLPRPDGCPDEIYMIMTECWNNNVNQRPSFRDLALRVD

Sequence of isolated recombinant JAK1 kinase domain (P23458 875-1153): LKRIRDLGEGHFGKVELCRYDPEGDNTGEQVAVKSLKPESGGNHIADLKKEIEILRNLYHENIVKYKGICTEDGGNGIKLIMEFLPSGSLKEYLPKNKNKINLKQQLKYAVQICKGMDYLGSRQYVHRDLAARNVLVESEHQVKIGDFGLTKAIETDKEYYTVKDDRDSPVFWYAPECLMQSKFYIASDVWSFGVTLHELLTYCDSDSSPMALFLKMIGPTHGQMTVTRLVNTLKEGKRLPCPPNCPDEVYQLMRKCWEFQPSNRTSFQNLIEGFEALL

Compound | Ki [1] [nM] | IC50 [2] [nM] | Ki [3] [nM]
O=C(Nc1c[nH]nc1-c1cc2c(cc1OC(F)F)SCCO2)c1cnn2cccnc12 [Example 151, N-(3-(6-(difluoromethoxy)-2,3-dihydrobenzo[b][1,4]oxathiin-7-yl)-1H-pyrazol-4-yl)pyrazolo[1,5-a]pyrimidine-3-carboxamide] | 0.77 | 30 | 0.25
O=C(Nc1c[nH]nc1-c1cc2sncc2cc1OC(F)F)c1cnn2cccnc12 [Example 152, N-(3-(5-(difluoromethoxy)benzo[d]isothiazol-6-yl)-1H-pyrazol-4-yl)pyrazolo[1,5-a]pyrimidine-3-carboxamide] | 0.1 | 4 | 0.06
O=C(Nc1c[nH]nc1-c1cc2cnsc2cc1OC(F)F)c1cnn2cccnc12 [Example 153, N-(3-(6-(difluoromethoxy)benzo[d]isothiazol-5-yl)-1H-pyrazol-4-yl)pyrazolo[1,5-a]pyrimidine-3-carboxamide] | 0.15 | 5 | 0.08
CC(C)OC(=O)n1cc(NC(=O)c2cnn3cccnc23)c(-c2cc3c(cc2OC(F)F)NCCO3)n1 [Example 154, Propan-2-yl 3-[6-(difluoromethoxy)-3,4-dihydro-2H-1,4-benzoxazin-7-yl]-4-[pyrazolo[1,5-a]pyrimidine-3-amido]-1H-pyrazole-1-carboxylate] | 0.4 | 22 | 0.38
